Assay results published in patent publication US11478533B2, “Semaglutide for use in medicine” (Novo Nordisk A/S, priority 2020, dated 2022).

Test system: subjects with NASH
Experiment: Clinical Trial A: liver biopsy histology (NASH-CRN, Kleiner fibrosis classification) at trial week 72
Type: in vivo, human
Conditions: for Worsening of liver fibrosis stage determined via liver biopsy at end of trial compared to baseline, Proportion of subjects: all randomised subjects
Excerpt: NASH diagnosis may further include histological evidence of NASH with an NAFLD activity score (NAS) of more than 4. In some embodiments the term “NAFLD activity score” as used herein refers to the unweighted sum of the individual scores of steatosis (score 0-3), lobular inflammation (score 0-3), and hepatocyte ballooning (score 0-2) determined by liver biopsy histology according to NASH-CRN; thus, NAS is in the range of 0 to 8. In some embodiments NASH-CRN is as published in Kleiner et al. Hepatology. 2005; 41(6):1313-21 (e.g. Table 1) and Brunt et al. World J Gastroenterol. 2010; 16(42):5286-96. In some embodiments the term “steatosis” as used herein refers to liver biopsy histology showing low- to medium-power evaluation of parenchymal involvement by steatosis and is one of the stages with a score selected from the group consisting of “0” (<5%), “1” (5%-33%), “2” (>33%-66%), and “3” (>66%) according to NASH-CRN. In some embodiments the term “lobular inflammation” as used herein refers to the overall assessment of all inflammatory foci in liver biopsy histology and is one of the stages with a score selected from the group consisting of “0” (no foci), “1” (<2 foci per 200 times magnification field), “2” (2-4 foci per 200 times magnification field) and “3” (>4 foci per 200 times magnification field) according to NASH-CRN. In some embodiments the term “hepatocyte ballooning” as used herein refers to liver biopsy histology showing one of the stages with a score selected from the group consisting of “0” (none), “1” (few balloon cells) and “2” (many cells/prominent ballooning) according to NASH-CRN.
In some embodiments the method of the invention provides resolution of NASH. In some embodiments the term “resolution of NASH” as used herein refers to the subject no longer fulfilling the criteria for a NASH diagnosis. In some embodiments the term “resolution of NASH” refers to a liver biopsy histology showing (i) no more than mild residual inflammatory cells (i.e. inflammation score 0 or 1 according to NASH-CRN), (ii) no hepatocyte ballooning (i.e. hepatocyte ballooning score of 0 according to NASH-CRN), and (iii) any value for steatosis (i.e. steatosis score of 0-3 according to NASH-CRN). In some embodiments the method of the invention provides an improvement of lobular inflammation and/or hepatocyte ballooning. In some embodiments the term “improvement of lobular inflammation” as used herein refers to reduction by at least one stage of lobular inflammation (score 0-3) as defined herein; for example, reduction from a score 3 to a score 1. In some embodiments the term “improvement of hepatocyte ballooning” as used herein refers to reduction by at least one stage of hepatocyte ballooning (score 0-2) as defined herein; for example, reduction from a score 2 to a score 0.
In some embodiments the term “fibrosis” as used herein refers to the fibrosis stage in NASH described by the Kleiner fibrosis classification. In some embodiments the terms “Kleiner fibrosis classification” or “fibrosis stage” are used interchangeably herein and refer to the classification as defined in Kleiner et al. Hepatology, 2005; 41(6):1313-21 which consists of the stages selected from the group consisting of “0” (absence of fibrosis), “1” (portal/perisinusoidal fibrosis), “2” (perisinusoidal and portal/periportal fibrosis), “3” (septal or bridging fibrosis), and “4” (cirrhosis). In some embodiments the method of the invention provides no worsening of liver fibrosis. In some embodiments the terms “no worsening of liver fibrosis” or “no worsening of liver fibrosis stage” as used interchangeably herein refers to no increase of at least one stage of the Kleiner fibrosis classification.
A 72-week, randomised, double-blind, placebo-controlled, six-armed, parallel group, multicentre, multi-national phase 2 trial comparing once daily (OD) administration of semaglutide in three different doses (0.1 mg, 0.2 mg and 0.4 mg) with placebo in subjects with NASH was carried out. […]

[1] = 0.1 mg OD s.c., week 72, Fibrosis stage 1-3 at baseline (all randomised subjects)
[2] = 0.1 mg OD s.c., week 72, Fibrosis stage 1 at baseline
[3] = 0.1 mg OD s.c., week 72, Fibrosis stage 2 at baseline
[4] = 0.1 mg OD s.c., week 72, Fibrosis stage 2 or 3 at baseline
[5] = 0.1 mg OD s.c., week 72, Fibrosis stage 3 at baseline
[6] = 0.2 mg OD s.c., week 72, Fibrosis stage 1-3 at baseline (all randomised subjects)
[7] = 0.2 mg OD s.c., week 72, Fibrosis stage 1 at baseline
[8] = 0.2 mg OD s.c., week 72, Fibrosis stage 2 at baseline
[9] = 0.2 mg OD s.c., week 72, Fibrosis stage 2 or 3 at baseline
[10] = 0.2 mg OD s.c., week 72, Fibrosis stage 3 at baseline
[11] = 0.4 mg OD s.c., week 72, Fibrosis stage 1-3 at baseline (all randomised subjects)
[12] = 0.4 mg OD s.c., week 72, Fibrosis stage 1 at baseline
[13] = 0.4 mg OD s.c., week 72, Fibrosis stage 2 at baseline
[14] = 0.4 mg OD s.c., week 72, Fibrosis stage 2 or 3 at baseline
[15] = 0.4 mg OD s.c., week 72, Fibrosis stage 3 at baseline
[16] = all tested semaglutide dosages, liver fibrosis stage 1-3 at baseline

N-epsilon26-[2-(2-{2-[2-(2-{2-[(S)-4-Carboxy-4-(17-carboxyheptadecanoyl-amino)butyrylamino]ethoxy}ethoxy)acetylamino]ethoxy}ethoxy)acetyl] [Aib8, Arg34]GLP-1-(7-37) [Semaglutide]
Improvement of hepatocyte ballooning at end of trial compared to baseline, proportion of subjects [1]: 61.3% | Improvement of lobular inflammation at end of trial compared to baseline, proportion of subjects [1]: 41.3% | Improvement of steatosis at end of trial compared to baseline, proportion of subjects [1]: 52.5% | Resolution of NASH and no worsening in liver fibrosis at end of trial, proportion of subjects [1]: 43.8 (0.0023) % | Resolution of NASH at end of trial, proportion of subjects [1]: 47.5% | Improvement of hepatocyte ballooning at end of trial compared to baseline, proportion of subjects [2]: 60.9% | Improvement of lobular inflammation at end of trial compared to baseline, proportion of subjects [2]: 34.8% | Improvement of steatosis at end of trial compared to baseline, proportion of subjects [2]: 56.5% | Resolution of NASH and no worsening in liver fibrosis at end of trial, proportion of subjects [2]: 52.2% | Resolution of NASH at end of trial, proportion of subjects [2]: 60.9% | Improvement of hepatocyte ballooning at end of trial compared to baseline, proportion of subjects [3]: 66.7% | Improvement of lobular inflammation at end of trial compared to baseline, proportion of subjects [3]: 33.3% | Improvement of steatosis at end of trial compared to baseline, proportion of subjects [3]: 61.1% | Resolution of NASH and no worsening in liver fibrosis at end of trial, proportion of subjects [3]: 55.6% | Resolution of NASH at end of trial, proportion of subjects [3]: 55.6% | Improvement of hepatocyte ballooning at end of trial compared to baseline, proportion of subjects [4]: 61.4% | Improvement of lobular inflammation at end of trial compared to baseline, proportion of subjects [4]: 43.9% | Improvement of steatosis at end of trial compared to baseline, proportion of subjects [4]: 50.9% | Resolution of NASH and no worsening in liver fibrosis at end of trial, proportion of subjects [4]: 40.4 (0.0100) % | Resolution of NASH at end of trial, proportion of subjects [4]: 42.1% | Improvement of hepatocyte ballooning at end of trial compared to baseline, proportion of subjects [5]: 59.0% | Improvement of lobular inflammation at end of trial compared to baseline, proportion of subjects [5]: 48.7% | Improvement of steatosis at end of trial compared to baseline, proportion of subjects [5]: 46.2% | Resolution of NASH and no worsening in liver fibrosis at end of trial, proportion of subjects [5]: 33.3% | Resolution of NASH at end of trial, proportion of subjects [5]: 35.9% | Worsening of liver fibrosis stage determined via liver biopsy at end of trial compared to baseline, Proportion of subjects (0.1 mg OD s.c., week 72): 10.0% | Improvement of hepatocyte ballooning at end of trial compared to baseline, proportion of subjects [6]: 70.5% | Improvement of lobular inflammation at end of trial compared to baseline, proportion of subjects [6]: 47.4% | Improvement of steatosis at end of trial compared to baseline, proportion of subjects [6]: 60.3% | Resolution of NASH and no worsening in liver fibrosis at end of trial, proportion of subjects [6]: 38.5 (0.0138) % | Resolution of NASH at end of trial, proportion of subjects [6]: 46.2% | Improvement of hepatocyte ballooning at end of trial compared to baseline, proportion of subjects [7]: 84.2% | Improvement of lobular inflammation at end of trial compared to baseline, proportion of subjects [7]: 42.1% | Improvement of steatosis at end of trial compared to baseline, proportion of subjects [7]: 63.2% | Resolution of NASH and no worsening in liver fibrosis at end of trial, proportion of subjects [7]: 47.4% | Resolution of NASH at end of trial, proportion of subjects [7]: 68.4% | Improvement of hepatocyte ballooning at end of trial compared to baseline, proportion of subjects [8]: 72.2% | Improvement of lobular inflammation at end of trial compared to baseline, proportion of subjects [8]: 38.9% | Improvement of steatosis at end of trial compared to baseline, proportion of subjects [8]: 66.7% | Resolution of NASH and no worsening in liver fibrosis at end of trial, proportion of subjects [8]: 55.6% | Resolution of NASH at end of trial, proportion of subjects [8]: 61.1% | Improvement of hepatocyte ballooning at end of trial compared to baseline, proportion of subjects [9]: 66.1% | Improvement of lobular inflammation at end of trial compared to baseline, proportion of subjects [9]: 49.2% | Improvement of steatosis at end of trial compared to baseline, proportion of subjects [9]: 59.3% | Resolution of NASH and no worsening in liver fibrosis at end of trial, proportion of subjects [9]: 35.6 (0.0359) % | Resolution of NASH at end of trial, proportion of subjects [9]: 39.0% | Improvement of hepatocyte ballooning at end of trial compared to baseline, proportion of subjects [10]: 63.4% | Improvement of lobular inflammation at end of trial compared to baseline, proportion of subjects [10]: 53.7% | Improvement of steatosis at end of trial compared to baseline, proportion of subjects [10]: 56.1% | Resolution of NASH and no worsening in liver fibrosis at end of trial, proportion of subjects [10]: 26.8% | Resolution of NASH at end of trial, proportion of subjects [10]: 29.3% | Worsening of liver fibrosis stage determined via liver biopsy at end of trial compared to baseline, Proportion of subjects (0.2 mg OD s.c., week 72): 7.7% | Improvement of hepatocyte ballooning at end of trial compared to baseline, proportion of subjects [11]: 74.4% | Improvement of lobular inflammation at end of trial compared to baseline, proportion of subjects [11]: 37.8% | Improvement of steatosis at end of trial compared to baseline, proportion of subjects [11]: 63.4% | Resolution of NASH and no worsening in liver fibrosis at end of trial, proportion of subjects [11]: 56.1 (<0.0001) % | Resolution of NASH at end of trial, proportion of subjects [11]: 61.0% | Improvement of hepatocyte ballooning at end of trial compared to baseline, proportion of subjects [12]: 57.7% | Improvement of lobular inflammation at end of trial compared to baseline, proportion of subjects [12]: 15.4% | Improvement of steatosis at end of trial compared to baseline, proportion of subjects [12]: 53.8% | Resolution of NASH and no worsening in liver fibrosis at end of trial, proportion of subjects [12]: 50.0% | Resolution of NASH at end of trial, proportion of subjects [12]: 53.8% | Improvement of hepatocyte ballooning at end of trial compared to baseline, proportion of subjects [13]: 78.6% | Improvement of lobular inflammation at end of trial compared to baseline, proportion of subjects [13]: 50.0% | Improvement of steatosis at end of trial compared to baseline, proportion of subjects [13]: 71.4% | Resolution of NASH and no worsening in liver fibrosis at end of trial, proportion of subjects [13]: 64.3% | Resolution of NASH at end of trial, proportion of subjects [13]: 78.6% | Improvement of hepatocyte ballooning at end of trial compared to baseline, proportion of subjects [14]: 82.1% | Improvement of lobular inflammation at end of trial compared to baseline, proportion of subjects [14]: 48.2% | Improvement of steatosis at end of trial compared to baseline, proportion of subjects [14]: 67.9% | Resolution of NASH and no worsening in liver fibrosis at end of trial, proportion of subjects [14]: 58.9 (<0.0001) % | Resolution of NASH at end of trial, proportion of subjects [14]: 64.3% | Improvement of hepatocyte ballooning at end of trial compared to baseline, proportion of subjects [15]: 83.3% | Improvement of lobular inflammation at end of trial compared to baseline, proportion of subjects [15]: 47.6% | Improvement of steatosis at end of trial compared to baseline, proportion of subjects [15]: 66.7% | Resolution of NASH and no worsening in liver fibrosis at end of trial, proportion of subjects [15]: 75.1% | Resolution of NASH at end of trial, proportion of subjects [15]: 59.5% | Worsening of liver fibrosis stage determined via liver biopsy at end of trial compared to baseline, Proportion of subjects (0.4 mg OD s.c., week 72): 4.9% | Worsening of liver fibrosis stage compared to placebo (in words) (all semaglutide dosages tested, week 72): lower proportion of subjects | Resolution of NASH and no worsening in liver fibrosis compared to placebo (in words) [16]: achieved by significantly more subjects compared to placebo | Resolution of NASH compared to placebo (in words) [16]: achieved by significantly more subjects compared to placebo
